From ChEMBL document CHEMBL1157622, “Synthesis and antiproliferative evaluation of certain indolo[3,2-c]quinoline derivatives” (Bioorg Med Chem, 2010)
The source made the active and inactive calls. The rule behind the calls is not given here.

What was measured:
PC-3 [1] = assay: Antiproliferative activity against human PC3 cells by MTT assay; type: functional, cell-based
A549 = assay: Antiproliferative activity against human A549 cells by MTT assay; type: functional, cell-based
Detroit 551 = assay: Antiproliferative activity against human Detroit 551 cells by MTT assay; type: cell-based
[2] = Antiproliferative activity against human SKHep cells by MTT assay; type: functional, cell-based
HeLa [3] = assay: Antiproliferative activity against human HeLa cells by MTT assay; type: functional, cell-based
[4] = biological target: T1, DNA topoisomerase 1 (Homo sapiens) (UniProt P11387); assay: Inhibition of topoisomerase 1-mediated unwinding of supercoiled plasmid DNA at 10 uM
T1 sequence (whole entry): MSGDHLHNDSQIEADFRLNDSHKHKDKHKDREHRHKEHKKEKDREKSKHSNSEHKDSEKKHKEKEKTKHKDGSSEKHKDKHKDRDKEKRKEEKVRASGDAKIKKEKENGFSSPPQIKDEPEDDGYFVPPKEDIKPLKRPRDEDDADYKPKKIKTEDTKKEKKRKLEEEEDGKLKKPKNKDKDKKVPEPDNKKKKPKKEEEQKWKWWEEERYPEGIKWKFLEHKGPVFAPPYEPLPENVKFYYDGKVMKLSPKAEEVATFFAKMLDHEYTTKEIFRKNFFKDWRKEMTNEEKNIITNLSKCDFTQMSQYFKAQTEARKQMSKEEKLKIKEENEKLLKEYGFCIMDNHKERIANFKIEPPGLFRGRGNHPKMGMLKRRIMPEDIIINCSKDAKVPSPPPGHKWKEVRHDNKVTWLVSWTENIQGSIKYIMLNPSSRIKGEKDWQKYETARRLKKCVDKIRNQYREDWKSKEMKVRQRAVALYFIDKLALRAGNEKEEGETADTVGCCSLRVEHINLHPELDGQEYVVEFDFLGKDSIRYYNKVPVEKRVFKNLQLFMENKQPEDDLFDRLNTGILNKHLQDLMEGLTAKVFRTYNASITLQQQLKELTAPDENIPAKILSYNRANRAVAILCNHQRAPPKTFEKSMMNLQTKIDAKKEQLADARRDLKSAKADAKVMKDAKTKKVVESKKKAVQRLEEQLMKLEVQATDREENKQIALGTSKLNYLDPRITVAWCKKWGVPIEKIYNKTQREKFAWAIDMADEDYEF

HeLa [5] = assay: Antiproliferative activity against human HeLa cells assessed as reduction in colony number after 48 hrs by clonogenic assay; type: functional, cell-based
PC-3 [6] = assay: Cell cycle arrest in human PC3 cells by accumulation at G1 phase at 0.3 uM after 48 hrs by propidium iodide staining-based flow cytometry (Rvb=68.4%); type: functional
[7] = biological target: T1, DNA topoisomerase 1 (Homo sapiens); assay: Inhibition of topoisomerase 1-mediated unwinding of supercoiled plasmid DNA at 0.1 to 1.0 uM
PC-3 [8] = assay: Induction of apoptosis in human PC3 cells assessed as gammaH2AX phosphorylation mediated DNA damage at 0.1 uM after 48 hrs by Western blot; type: functional, cell-based
PC-3 [9] = assay: Cell cycle arrest in human PC3 cells by accumulation at G2/M phase at 0.3 uM after 48 hrs by propidium iodide staining-based flow cytometry (Rvb=19.4%); type: functional
PC-3 [10] = assay: Induction of apoptosis in human PC3 cells assessed as caspase 3 activation at 0.1 uM after 48 hrs by Western blot; type: functional, cell-based
PC-3 [11] = assay: Cell cycle arrest in human PC3 cells by accumulation at G1 phase at 0.1 uM after 48 hrs by propidium iodide staining-based flow cytometry (Rvb=68.4%); type: functional
PC-3 [12] = assay: Cell cycle arrest in human PC3 cells by accumulation at G2/M phase at 0.1 uM after 48 hrs by propidium iodide staining-based flow cytometry (Rvb=19.4%); type: functional
PC-3 [13] = assay: Induction of apoptosis in human PC3 cells assessed as PARP cleavage at 0.1 uM after 48 hrs by Western blot; type: functional, cell-based
PC-3 [14] = assay: Cell cycle arrest in human PC3 cells by accumulation at S phase at 0.1 uM after 48 hrs by propidium iodide staining-based flow cytometry (Rvb=11.2%); type: functional
HeLa [15] = assay: Antiproliferative activity against human HeLa cells at 0.3 to 1.0 uM after 48 hrs by MTT assay; type: functional
HeLa [16] = assay: Antiproliferative activity against human HeLa cells assessed as reduction in colony size after 48 hrs by clonogenic assay; type: functional, cell-based
PC-3 [17] = assay: Cell cycle arrest in human PC3 cells by accumulation at subG1 phase at 0.3 uM after 48 hrs by propidium iodide staining-based flow cytometry (Rvb=0.8%); type: functional
PC-3 [18] = assay: Cell cycle arrest in human PC3 cells by accumulation at S phase at 0.3 uM after 48 hrs by propidium iodide staining-based flow cytometry (Rvb=11.2%); type: functional
PC-3 [19] = assay: Cell cycle arrest in human PC3 cells by accumulation at subG1 phase at 0.1 uM after 48 hrs by propidium iodide staining-based flow cytometry (Rvb=0.8%); type: functional
[20] = biological target: DNA topoisomerase 2-alpha (Homo sapiens) (UniProt P11388); assay: Inhibition of DNA topoisomerase 2-mediated unwinding of supercoiled pBR322 DNA
DNA topoisomerase 2-alpha (Homo sapiens), sequence (P11388 whole entry): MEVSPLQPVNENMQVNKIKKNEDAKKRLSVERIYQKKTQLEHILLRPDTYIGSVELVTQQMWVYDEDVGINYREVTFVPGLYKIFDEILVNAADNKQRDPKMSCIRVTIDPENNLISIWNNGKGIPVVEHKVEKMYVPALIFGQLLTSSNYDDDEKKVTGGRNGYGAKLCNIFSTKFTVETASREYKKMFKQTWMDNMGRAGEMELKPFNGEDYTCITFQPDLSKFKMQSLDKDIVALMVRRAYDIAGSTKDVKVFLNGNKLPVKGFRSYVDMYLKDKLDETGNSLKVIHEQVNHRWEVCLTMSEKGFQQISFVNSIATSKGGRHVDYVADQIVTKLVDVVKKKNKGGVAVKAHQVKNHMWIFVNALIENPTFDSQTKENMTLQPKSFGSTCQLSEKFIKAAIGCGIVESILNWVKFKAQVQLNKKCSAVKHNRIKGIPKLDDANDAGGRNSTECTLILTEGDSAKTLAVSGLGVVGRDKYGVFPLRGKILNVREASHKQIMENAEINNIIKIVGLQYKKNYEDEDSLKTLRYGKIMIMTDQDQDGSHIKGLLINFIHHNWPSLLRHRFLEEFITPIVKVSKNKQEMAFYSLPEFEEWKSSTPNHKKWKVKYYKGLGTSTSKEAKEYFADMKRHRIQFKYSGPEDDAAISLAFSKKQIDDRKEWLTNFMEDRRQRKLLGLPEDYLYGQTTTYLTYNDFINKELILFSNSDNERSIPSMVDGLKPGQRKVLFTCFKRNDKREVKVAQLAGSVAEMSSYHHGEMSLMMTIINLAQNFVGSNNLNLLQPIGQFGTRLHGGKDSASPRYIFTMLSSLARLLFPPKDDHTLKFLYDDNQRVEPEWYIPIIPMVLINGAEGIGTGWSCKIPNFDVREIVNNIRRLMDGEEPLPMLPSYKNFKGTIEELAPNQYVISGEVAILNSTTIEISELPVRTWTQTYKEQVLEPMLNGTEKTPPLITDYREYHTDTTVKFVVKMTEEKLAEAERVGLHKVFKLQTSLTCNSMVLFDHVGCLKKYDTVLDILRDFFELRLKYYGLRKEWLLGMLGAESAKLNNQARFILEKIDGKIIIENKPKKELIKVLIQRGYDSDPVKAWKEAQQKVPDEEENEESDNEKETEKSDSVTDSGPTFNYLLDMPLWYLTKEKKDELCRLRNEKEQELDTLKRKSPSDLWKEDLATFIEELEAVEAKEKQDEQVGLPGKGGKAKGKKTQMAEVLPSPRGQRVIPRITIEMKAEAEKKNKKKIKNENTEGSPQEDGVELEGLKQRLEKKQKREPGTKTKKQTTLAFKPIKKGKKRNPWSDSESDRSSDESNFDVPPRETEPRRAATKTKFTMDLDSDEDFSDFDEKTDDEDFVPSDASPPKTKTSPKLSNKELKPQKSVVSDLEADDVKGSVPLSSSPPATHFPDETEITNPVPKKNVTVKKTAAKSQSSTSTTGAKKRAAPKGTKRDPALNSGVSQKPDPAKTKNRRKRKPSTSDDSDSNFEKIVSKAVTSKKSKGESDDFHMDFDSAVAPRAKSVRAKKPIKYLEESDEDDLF

| SMILES | IC50 (PC-3 [1]) | IC50 (A549) | IC50 (Detroit 551) | IC50 [2] | IC50 (HeLa [3]) | also measured |
| --- | --- | --- | --- | --- | --- | --- |
| OCCNCCNc1nc2ccccc2c2[nH]c3ccccc3c12 | 5810 nM | 700 nM | 1740 nM | 720 nM | 740 nM |  |
| c1ccc(Nc2nc3ccccc3c3[nH]c4ccccc4c23)cc1 | > 30000 nM | > 30000 nM |  | > 30000 nM | > 30000 nM |  |
| COc1ccc(CCNc2nc3ccccc3c3[nH]c4ccccc4c23)cc1OC | 8980 nM | 5390 nM | 19300 nM | 5830 nM | 520 nM |  |
| c1ccc2c(c1)nc(NCCCCCCNc1nc3ccccc3c3[nH]c4ccccc4c13)c1c3ccccc3[nH]c21 | 590 nM | 500 nM |  | 1470 nM | 310 nM |  |
| Oc1ccc(CCNc2nc3ccc(F)cc3c3[nH]c4ccccc4c23)cc1 | 6320 nM | 9190 nM |  | 7780 nM | 1330 nM |  |
| NCCCCCCNc1nc2ccccc2c2[nH]c3ccccc3c12 | 2550 nM | 84 nM |  | 2510 nM | 72 nM |  |
| Oc1ccc(CCNc2nc3ccccc3c3[nH]c4ccccc4c23)cc1 | 8940 nM | 5740 nM | 4300 nM | 5240 nM | 590 nM |  |
| Cl.c1ccc2c(c1)nc(NCCCNCCCNc1nc3ccccc3c3[nH]c4ccccc4c13)c1c3ccccc3[nH]c21 | 80 nM | 110 nM | 1980 nM | 90 nM | 68 nM | inhibition [4]: Active; Activity (HeLa [5]): Dose-dependent effect; Activity (PC-3 [6]): 15.8%; inhibition [7]: inactive; Activity (PC-3 [8]): Active; Activity (PC-3 [9]): 8.7%; Activity (PC-3 [10]): Active; Activity (PC-3 [11]): 40.3%; Activity (PC-3 [12]): 24.1%; Activity (PC-3 [13]): Active; Activity (PC-3 [14]): 4.5%; inhibition (INH) (HeLa [15]): 95%; Activity (HeLa [16]): Dose-dependent effect; Activity (PC-3 [17]): 72.6%; Activity (PC-3 [18]): 2.7%; Activity (PC-3 [19]): 30.6%; inhibition [20]: Dose-dependent effect |
| c1ccc2c(c1)nc(NCCN1CCNCC1)c1c3ccccc3[nH]c21 | 1770 nM | 530 nM | 2600 nM | 380 nM | 680 nM |  |
| Oc1ccc(CCNc2nc3ccccc3c3[nH]c4ccccc4c23)cc1O | 15200 nM | 10300 nM |  | 6660 nM | 3770 nM |  |
| Oc1cccc(Nc2nc3ccccc3c3[nH]c4ccccc4c23)c1 | 18400 nM | 10400 nM | 42500 nM | 7230 nM | 10300 nM |  |
| c1ccc2c(c1)nc(NCCN1CCOCC1)c1c3ccccc3[nH]c21 | 2840 nM | 1130 nM |  | 1290 nM | 870 nM |  |
| NCCNCCNc1nc2ccccc2c2[nH]c3ccccc3c12 | 7980 nM | 1030 nM | 3880 nM | 2170 nM | 650 nM |  |
| Oc1ccc(Nc2nc3ccccc3c3[nH]c4ccccc4c23)cc1 | 5430 nM | 3870 nM | 25400 nM | 5700 nM | 1540 nM |  |
| Oc1ccccc1Nc1nc2ccccc2c2[nH]c3ccccc3c12 | > 30000 nM | 17700 nM |  | 21900 nM | 4690 nM |  |
| CN(C)CCNc1nc2ccccc2c2[nH]c3ccccc3c12 | 5790 nM | 830 nM | 2210 nM | 1600 nM | 610 nM |  |
| CN(CCCNc1nc2ccccc2c2[nH]c3ccccc3c12)CCCNc1nc2ccccc2c2[nH]c3ccccc3c12 | 2010 nM | 430 nM | 2140 nM | 280 nM | 890 nM |  |
| NCCCCCCCNc1nc2ccccc2c2[nH]c3ccccc3c12 | 6250 nM | 2230 nM |  | 2540 nM | 2670 nM |  |
| Fc1ccc2nc(NCCN3CCOCC3)c3c4ccccc4[nH]c3c2c1 | 6840 nM | 6730 nM |  | 5290 nM | 4320 nM |  |
| OCCNCCNc1nc2ccc(F)cc2c2[nH]c3ccccc3c12 | 6510 nM | 930 nM |  | 1310 nM | 1490 nM |  |
| CN(C)CCCNc1nc2ccccc2c2[nH]c3ccccc3c12 | 3650 nM | 500 nM | 2180 nM | 790 nM | 850 nM |  |
| OCCNc1nc2ccccc2c2[nH]c3ccccc3c12 | 5650 nM | 990 nM | 3150 nM | 1020 nM | 620 nM |  |
| COc1ccc(Nc2nc3ccccc3c3[nH]c4ccccc4c23)cc1 | 21000 nM | 10900 nM |  | 7780 nM | 11400 nM |  |
| c1ccc2c(c1)nc(NCCCCCCCNc1nc3ccccc3c3[nH]c4ccccc4c13)c1c3ccccc3[nH]c21 | 6560 nM | 1190 nM |  | 1610 nM | 1190 nM |  |
| Fc1ccc2nc(NCCN3CCNCC3)c3c4ccccc4[nH]c3c2c1 | 12300 nM | 6200 nM |  | 2670 nM | 5350 nM |  |
| COc1cccc2c1C(=O)c1c(O)c3c(c(O)c1C2=O)C[C@@](O)(C(=O)CO)C[C@@H]3O[C@H]1C[C@H](N)[C@H](O)[C@H](C)O1 [DOXORUBICIN] | 1760 nM |  |  |  | 330 nM |  |
